IC50 data for 24 molecules are collected here from patent publication US10913738B2 (BRISTOL-MYERS SQUIBB COMPANY, priority 2017, dated 2021).

Experiment [1] addresses T1, His-GST-TVMV-hRIPK1(1-324) (Homo sapiens, UniProt Q13546).
T1 construct: The coding region of human RIPK1(1-324) flanked by NdeI site at 5′ end; made in house; host or cells: Spodoptera frugiperda (Sf9) insect cells, baculovirus
T1 sequence (Q13546 1-324): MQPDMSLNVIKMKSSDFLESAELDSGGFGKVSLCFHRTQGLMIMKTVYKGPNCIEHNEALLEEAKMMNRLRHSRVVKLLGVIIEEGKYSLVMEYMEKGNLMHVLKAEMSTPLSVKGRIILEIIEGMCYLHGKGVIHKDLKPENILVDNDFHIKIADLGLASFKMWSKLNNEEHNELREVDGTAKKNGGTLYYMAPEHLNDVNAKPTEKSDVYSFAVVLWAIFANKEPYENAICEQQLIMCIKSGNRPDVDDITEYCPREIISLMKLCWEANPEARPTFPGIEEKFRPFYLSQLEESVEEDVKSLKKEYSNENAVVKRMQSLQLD
Nature of the experiment: RIPK1 HTRF Binding Assay.

The subject of experiment [2] is MLKL phosphorylation in HT29-L23 human colorectal adenocarcinoma cells. Put plainly: MLKL Phosphorylation High-Content Assay. The following applies: Homo sapiens. The format is cell-based. In short, it runs like this: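 Cells incubated six hours at 37° C., then phospho-MLKL (S358) immunostained overnight at 4° C. and imaged by high-content microscopy. Phosphorylation quantified as mean circ-ring average intensity ratio; IC50 and Ymax from 4-parameter logistic fits.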

The mark [3] stands for this setting: x marks IC50 class <20 nM, read-out: RIPK1 HTRF binding <20 nM.
Setting [4] is: x marks IC50 class 20-200 nM, read-out: pMLKL cell activity 20-200 nM.
The mark [5] stands for this setting: x marks IC50 class >200 nM, read-out: pMLKL cell activity >200 nM.
Where [6] appears, read: x marks IC50 class 20-200 nM, read-out: RIPK1 HTRF binding 20-200 nM.
[7] abbreviates: x marks IC50 class <20 nM, read-out: pMLKL cell activity <20 nM.

Where two headings read alike, the source gives them in different places.

`COc1ncc(-c2ccn3nc(N)nc3c2)cc1C(=O)NCc1ccccc1OCC1CCCC1` [Example 138, 5-{2-amino-[1,2,4]triazolo[1,5-a]pyridin-7-yl}-N-{[2-(cyclopentylmethoxy)phenyl]methyl}-2-methoxypyridine-3-carboxamide]: the IC50 is below 20 nM in experiment [1] (setting [3]) and 20 to 200 nM in experiment [2] (setting [4]).
For `COc1nc(C)c(-c2ccn3nc(N)nc3c2)cc1C(=O)NCc1ccccc1OC(F)(F)F` [Example 211, 5-{2-amino-[1,2,4]triazolo[1,5-a]pyridin-7-yl}-2-methoxy-6-methyl-N-{[2-(trifluoromethoxy)phenyl]methyl}pyridine-3-carboxamide], in that order: below 20 nM and 20 to 200 nM.
On to `Cc1ncc(-c2ccn3nc(N)nc3c2)cc1C(=O)NCc1cccnc1OCC1CCC1` [Example 233, 5-{2-amino-[1,2,4]triazolo[1,5-a]pyridin-7-yl}-N-{[2-(cyclobutylmethoxy)pyridin-3-yl]methyl}-2-methylpyridine-3-carboxamide], for which the IC50 in experiment [1] (setting [3]) is below 20 nM; in experiment [2] (setting [5]) it was above 200 nM.
For the molecule `CCOc1ncc(-c2ccn3nc(N)nc3c2)cc1C(=O)NCc1ccccc1OCC1CC1` [Example 272, 5-{2-amino-[1,2,4]triazolo[1,5-a]pyridin-7-yl}-N-{[2-(cyclopropylmethoxy)phenyl]methyl}-2-ethoxypyridine-3-carboxamide], the IC50 in experiment [1] (setting [3]) is below 20 nM; in experiment [2] (setting [4]) it was 20 to 200 nM.
As for `CCc1ncc(-c2ccn3nc(N)nc3c2)cc1C(=O)NCc1cc(C(F)(F)F)ccc1F` [Example 322, 5-(2-amino-[1,2,4]triazolo[1,5-a]pyridin-7-yl)-2-ethyl-N-(2-fluoro-5-(trifluoromethyl)benzyl)nicotinamide], the IC50 in experiment [1] (setting [6]) and in experiment [2] (setting [4]) was 20 to 200 nM each time.
On to `CC(C)Oc1ccccc1CNC(=O)c1cc(-c2ccn3nc(N)nc3c2)cnc1N` [Example 55, 2-Amino-5-{2-amino-[1,2,4]triazolo[1,5-a]pyridin-7-yl}-N-{[2-(propan-2-yloxy)phenyl]methyl}pyridine-3-carboxamide], for which the IC50 in experiment [1] (setting [3]) is below 20 nM; in experiment [2] (setting [4]), 20 to 200 nM.
For `Cc1ncc(C(=O)NCc2ccccc2OCC2CCCC2)cc1-c1ccn2nc(N)nc2c1` [Example 263, 5-{2-amino-[1,2,4]triazolo[1,5-a]pyridin-7-yl}-N-{[2-(cyclopentylmethoxy)phenyl]methyl}-6-methylpyridine-3-carboxamide], in that order: below 20 nM and 20 to 200 nM.
For `COc1ncc(-c2ccn3nc(N)nc3c2)cc1C(=O)NCc1ccccc1OC(F)(F)C(F)F` [Example 150, 5-{2-amino-[1,2,4]triazolo[1,5-a]pyridin-7-yl}-2-methoxy-N-{[2-(1,1,2,2-tetrafluoroethoxy)phenyl]methyl}pyridine-3-carboxamide], in that order: below 20 nM and 20 to 200 nM.
Take `Cc1ncc(-c2ccn3nc(N)nc3c2)cc1C(=O)NCC(C)(O)Cc1ccc(F)cc1` (stereo not drawn) [Example 421, 5-(2-amino-[1,2,4]triazolo[1,5-a]pyridin-7-yl)-N-(3-(4-fluorophenyl)-2-hydroxy-2-methylpropyl)-2-methylnicotinamide]: the figures for the IC50 in experiment [1] (setting [6]) and in experiment [2] (setting [5]) were 20 to 200 nM and above 200 nM, respectively.
For the molecule `COc1ncc(-c2ccn3nc(N)nc3c2)cc1C(=O)NCc1ccccc1-c1ccccc1` [Example 106, 5-{2-amino-[1,2,4]triazolo[1,5-a]pyridin-7-yl}-N-({[1,1′-biphenyl]-2-yl}methyl)-2-methoxypyridine-3-carboxamide], the IC50 in experiment [1] (setting [3]) and in experiment [2] (setting [7]) was below 20 nM throughout.
As to `COc1ncc(-c2ccn3nc(N)nc3c2)cc1C(=O)NCc1cccc(OCC2CC2)c1` [Example 47, 5-{2-Amino-[1,2,4]triazolo[1,5-a]pyridin-7-yl}-N-{[3-(cyclopropylmethoxy)phenyl]methyl}-2-methoxypyridine-3-carboxamide], the IC50 in experiment [1] (setting [6]) is 20 to 200 nM; in experiment [2] (setting [5]), above 200 nM.
Regarding `Cc1nc(C)c(-c2ccn3nc(N)nc3c2)cc1C(=O)NCc1cc(F)cc(F)c1OC1CC(C)OC(C)C1` (stereo not drawn) [Example 297, 5-(2-amino-[1,2,4]triazolo[1,5-a]pyridin-7-yl)-N-(2-((2,6-dimethyltetrahydro-2H-pyran-4-yl)oxy)-3,5-difluorobenzyl)-2,6-dimethylnicotinamide], the IC50 in experiment [1] (setting [6]) and in experiment [2] (setting [4]) was 20 to 200 nM each time.
As to `Cc1cnc(C(=O)NCc2cc(OC(F)(F)F)ccc2F)cc1-c1ccn2nc(N)nc2c1` [Example 399, 4-(2-amino-[1,2,4]triazolo[1,5-a]pyridin-7-yl)-N-(2-fluoro-5-(trifluoromethoxy)benzyl)-5-methylpicolinamide], the IC50 in experiment [1] (setting [6]) and in experiment [2] (setting [4]) was 20 to 200 nM each time.
Regarding `Cc1ncc(-c2ccn3nc(N)nc3c2)cc1C(=O)NCc1cc(F)cc(F)c1OC1CCCOC1` (stereo not drawn) [Example 314, 5-(2-amino-[1,2,4]triazolo[1,5-a]pyridin-7-yl)-N-(3,5-difluoro-2-((tetrahydro-2H-pyran-3-yl)oxy)benzyl)-2-methylnicotinamide], the IC50 in experiment [1] (setting [6]) and in experiment [2] (setting [4]) was 20 to 200 nM in each case.
Turning to `CCOc1ncc(-c2ccn3nc(N)nc3c2)cc1C(=O)NC[C@H]1C[C@@H]1COc1ccc(Br)cc1F` [Example 273, 5-{2-amino-[1,2,4]triazolo[1,5-a]pyridin-7-yl}-N-{[(1S,2S)-2-[(4-bromo-2-fluorophenoxy)methyl]cyclopropyl]methyl}-2-ethoxypyridine-3-carboxamide], the IC50 in experiment [1] (x marks IC50 class >200 nM, read-out: RIPK1 HTRF binding >200 nM) is above 200 nM; in experiment [2] (setting [4]) it was 20 to 200 nM.
For the molecule `COc1ncc(-c2ccn3nc(N)nc3c2)cc1C(=O)NC(C)c1cccc(OC(F)(F)F)c1` (single isomer, unassigned) [Example 36-1, 5-{2-Amino-[1,2,4]triazolo[1,5-a]pyridin-7-yl}-2-methoxy-N-{1-[3-(trifluoromethoxy)phenyl]ethyl}pyridine-3-carboxamide], the IC50 in experiment [1] (setting [6]) and in experiment [2] (setting [4]) was 20 to 200 nM each time.
Take `COc1ncc(-c2ccn3nc(N)nc3c2)cc1C(=O)NCc1cc(C(F)(F)F)ccc1Cl` [Example 161, 5-{2-amino-[1,2,4]triazolo[1,5-a]pyridin-7-yl}-N-{[2-chloro-5-(trifluoromethyl)phenyl]methyl}-2-methoxypyridine-3-carboxamide]: the IC50 is below 20 nM in experiment [1] (setting [3]) and 20 to 200 nM in experiment [2] (setting [4]).
As for `[2H]C([2H])([2H])Oc1ncc(-c2ccn3nc(N)nc3c2)cc1C(=O)N[C@H](C)c1cc(OC(F)(F)F)ccc1F` [Example 285, (R)-5-(2-amino-[1,2,4]triazolo[1,5-a]pyridin-7-yl)-N-(1-(2-fluoro-5-(trifluoromethoxy)phenyl)ethyl)-2-(methoxy-d3)nicotinamide], the IC50 in experiment [1] (setting [6]) and in experiment [2] (setting [4]) was 20 to 200 nM in each case.
With `COc1nc(C)c(-c2ccn3nc(N)nc3c2)cc1C(=O)NCc1cccc(OC(F)F)c1` [Example 204, 5-{2-amino-[1,2,4]triazolo[1,5-a]pyridin-7-yl}-N-{[3-(difluoromethoxy)phenyl]methyl}-2-methoxy-6-methylpyridine-3-carboxamide], the figures for the IC50 in experiment [1] (setting [6]) and in experiment [2] (setting [5]) were 20 to 200 nM and above 200 nM, respectively.
Regarding `COc1ncc(-c2ccn3nc(N)nc3c2)cc1C(=O)NCc1cccnc1OCC1CCC1` [Example 137, 5-{2-amino-[1,2,4]triazolo[1,5-a]pyridin-7-yl}-N-{[2-(cyclobutylmethoxy)pyridin-3-yl]methyl}-2-methoxypyridine-3-carboxamide], the IC50 in experiment [1] (setting [3]) was below 20 nM; in experiment [2] (setting [4]), 20 to 200 nM.
For `Cc1nc(C)c(-c2ccn3nc(N)nc3c2)cc1C(=O)NCC(O)COc1ccccc1` (stereo not drawn) [Example 172, 5-{2-amino-[1,2,4]triazolo[1,5-a]pyridin-7-yl}-N-(2-hydroxy-3-phenoxypropyl)-2,6-dimethylpyridine-3-carboxamide], in that order: below 20 nM and 20 to 200 nM.
As to `Cc1ncc(-c2ccn3nc(N)nc3c2)cc1C(=O)NCc1ncccc1OC1CCCC1` [Example 241, 5-{2-amino-[1,2,4]triazolo[1,5-a]pyridin-7-yl}-N-{[3-(cyclopentyloxy)pyridin-2-yl]methyl}-2-methylpyridine-3-carboxamide], the IC50 in experiment [1] (setting [3]) is below 20 nM; in experiment [2] (setting [4]), 20 to 200 nM.
As for `Cc1nc(C)c(-c2ccn3nc(N)nc3c2)cc1C(=O)NCc1cc(F)cc(F)c1OCC1CC1` [Example 184, 5-{2-amino-[1,2,4]triazolo[1,5-a]pyridin-7-yl}-N-{[2-(cyclopropylmethoxy)-3,5-difluorophenyl]methyl}-2,6-dimethylpyridine-3-carboxamide], the IC50 in experiment [1] (setting [3]) and in experiment [2] (setting [7]) was below 20 nM throughout.
In the case of `CCc1ccccc1CNC(=O)c1cc(-c2ccn3nc(N)nc3c2)cnc1OC` [Example 133, 5-{2-amino-[1,2,4]triazolo[1,5-a]pyridin-7-yl}-N-[(2-ethylphenyl)methyl]-2-methoxypyridine-3-carboxamide], the IC50 in experiment [1] (setting [6]) is 20 to 200 nM; in experiment [2] (setting [5]), above 200 nM.
